Source: ChEMBL document CHEMBL1141087, “Differential response of estrogen receptor subtypes to 1,3-diarylindene and 2,3-diarylindene ligands” (J Med Chem, 2005)
pEC50, pKi: −log10 of the molar value.

Columns and labels:
Estrogen receptor [1] = biological target: T1, Estrogen receptor (Homo sapiens, UniProt P03372)
T1 sequence (P03372 whole entry): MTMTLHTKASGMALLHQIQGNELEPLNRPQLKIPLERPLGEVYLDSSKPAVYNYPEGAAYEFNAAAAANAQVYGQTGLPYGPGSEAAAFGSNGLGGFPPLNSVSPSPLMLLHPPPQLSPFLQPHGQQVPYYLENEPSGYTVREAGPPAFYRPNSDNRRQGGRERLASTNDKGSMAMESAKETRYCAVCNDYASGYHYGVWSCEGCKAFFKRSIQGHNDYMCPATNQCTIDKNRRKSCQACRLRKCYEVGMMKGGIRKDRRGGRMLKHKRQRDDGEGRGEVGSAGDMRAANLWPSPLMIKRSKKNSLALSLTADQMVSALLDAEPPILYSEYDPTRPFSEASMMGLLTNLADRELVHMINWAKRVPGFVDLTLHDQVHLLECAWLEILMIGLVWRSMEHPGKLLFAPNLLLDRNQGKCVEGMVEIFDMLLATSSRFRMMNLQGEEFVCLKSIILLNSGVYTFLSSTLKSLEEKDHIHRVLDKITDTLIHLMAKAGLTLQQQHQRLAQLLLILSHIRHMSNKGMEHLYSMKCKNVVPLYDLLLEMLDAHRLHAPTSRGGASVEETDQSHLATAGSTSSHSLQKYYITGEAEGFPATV
Description: Transcriptional activation of estrogen receptor alpha in U2OS cell using estrogen-regulated luciferase reporter gene plasmid upon incubation for 20-30 mins at RT

Estrogen receptor beta [2] = biological target: T2, Estrogen receptor beta (Homo sapiens, UniProt Q92731)
T2 sequence (Q92731 whole entry): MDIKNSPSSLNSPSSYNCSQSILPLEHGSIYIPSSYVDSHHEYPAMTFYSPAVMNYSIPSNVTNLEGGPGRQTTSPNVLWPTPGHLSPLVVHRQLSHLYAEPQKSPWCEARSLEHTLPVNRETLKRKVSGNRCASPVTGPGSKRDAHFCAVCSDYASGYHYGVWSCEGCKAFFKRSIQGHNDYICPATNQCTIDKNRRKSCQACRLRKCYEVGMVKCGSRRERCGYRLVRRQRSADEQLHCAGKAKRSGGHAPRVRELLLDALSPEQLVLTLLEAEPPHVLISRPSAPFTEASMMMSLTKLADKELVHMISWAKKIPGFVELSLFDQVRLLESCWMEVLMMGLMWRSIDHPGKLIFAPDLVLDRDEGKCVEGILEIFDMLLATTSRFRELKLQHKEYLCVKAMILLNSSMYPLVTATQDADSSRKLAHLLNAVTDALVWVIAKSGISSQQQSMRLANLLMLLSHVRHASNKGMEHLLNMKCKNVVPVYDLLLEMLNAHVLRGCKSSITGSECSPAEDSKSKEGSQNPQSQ

Estrogen receptor [3] = biological target: T1, Estrogen receptor; remark: listed apart in the source
Estrogen receptor beta [4] = biological target: T2, Estrogen receptor beta; remark: listed apart in the source
Description: Transcriptional activation of estrogen receptor beta in U2OS cell using estrogen-regulated luciferase reporter gene plasmid upon incubation for 20-30 mins at RT

| SMILES | pEC50 (Estrogen receptor [1]) | pKi (Estrogen receptor beta [2]) | pKi (Estrogen receptor [3]) | pEC50 (Estrogen receptor beta [4]) |
| --- | --- | --- | --- | --- |
| Oc1ccc(C2=C(c3ccc(CBr)cc3)c3ccc(O)cc3C2)cc1 | 6.96 | 7.82 | 7.23 | – |
| Cc1ccc(C2=C(c3ccc(O)cc3)Cc3cc(O)ccc32)cc1 | 7.77 | 8.89 | – | – |
| Oc1ccc(C2=C(c3ccc(F)cc3)c3ccc(O)cc3C2)cc1 | 8.41 | 8.55 | – | 8.00 |
| CCC1=C(c2ccc(O)cc2)C(C(=O)Nc2ccc(O)cc2)c2cc(O)ccc21 (stereo not drawn) | 6.37 | – | – | – |
| NC(=O)c1ccc(C2=C(c3ccc(O)cc3)Cc3cc(O)ccc32)cc1 | – | 9.34 | 8.38 | – |
| Nc1ccc(C2=C(c3ccc(O)cc3)Cc3cc(O)ccc32)cc1 | 8.17 | 8.66 | 9.17 | – |
| O=C(O)c1ccc(C2=C(c3ccc(O)cc3)Cc3cc(O)ccc32)cc1 | – | 6.38 | – | – |
| CCC1=C(c2ccc(O)cc2)C(C(=O)O)c2cc(O)ccc21 (stereo not drawn) | 6.80 | – | – | 7.28 |
| Oc1ccc(C2=C(c3ccccc3)c3ccc(O)cc3C2)cc1 | 8.37 | – | – | 7.27 |
| Oc1ccc(C2=C(c3ccc(OCCN4CCCCC4)cc3)c3ccc(O)cc3C2)cc1 | – | 9.72 | 8.77 | – |
| CCC1=C(c2ccc(O)cc2)C(CC)c2cc(O)ccc21 (stereo not drawn) | 10.23 | – | – | 9.52 |
| CCC1=C(c2ccc(O)cc2)C(C(=O)Nc2ccc(OCCN(C)C)cc2)c2cc(O)ccc21 (stereo not drawn) | 6.82 | – | – | 6.29 |
| Oc1ccc(C2=C(c3ccc(C(F)(F)F)cc3)c3ccc(O)cc3C2)cc1 | 7.82 | 9.04 | 8.68 | – |
| Oc1ccc(C2=C(Cc3ccccc3)c3ccc(O)cc3C2)cc1 | 7.85 | – | – | 7.43 |
| CC(=O)c1ccc(C2=C(c3ccc(O)cc3)Cc3cc(O)ccc32)cc1 | – | 8.42 | 8.14 | – |
| CCC1=C(c2ccc(O)cc2)Cc2cc(O)ccc21 | 9.51 | – | – | 9.52 |
| CCC1=C(c2ccc(O)cc2)C(C(=O)Nc2ccc(OCCN3CCCCC3)cc2)c2cc(O)ccc21 (stereo not drawn) | 7.00 | 6.83 | 6.74 | – |
| Oc1ccc(C2=C(c3ccc(O)cc3)c3ccc(O)cc3C2)cc1 | 8.15 | 8.89 | 8.07 | – |
| Oc1ccc(C2=C(c3ccc(Cl)cc3)c3ccc(O)cc3C2)cc1 | 7.77 | 9.31 | 7.62 | – |
